# Test results published in patent US8906925B2, “Pyrido[4,3-B]indoles containing rigid moieties” (Medivation Technologies, Inc., priority 2008, dated 2014).
# Values joined by “and” are separate entries in the source; they are usually repeats but may differ in a detail not shown here. Equal entries are not always repeated.
# Tests used:
# [1] = target: T1, human recombinant adrenergic α1D receptor (Homo sapiens, UniProt P25100); assay: Adrenergic α1D radioligand binding ([3H]Prozosin); details: percent inhibition of specific binding; compound at 1 μM; read-out: Inhibition of ligand binding, Adrenergic α1D
# T1 construct: expressed in transfected cells; host or cells: human embryonic kidney (HEK-293) cells
# T1 sequence (P25100 1-572): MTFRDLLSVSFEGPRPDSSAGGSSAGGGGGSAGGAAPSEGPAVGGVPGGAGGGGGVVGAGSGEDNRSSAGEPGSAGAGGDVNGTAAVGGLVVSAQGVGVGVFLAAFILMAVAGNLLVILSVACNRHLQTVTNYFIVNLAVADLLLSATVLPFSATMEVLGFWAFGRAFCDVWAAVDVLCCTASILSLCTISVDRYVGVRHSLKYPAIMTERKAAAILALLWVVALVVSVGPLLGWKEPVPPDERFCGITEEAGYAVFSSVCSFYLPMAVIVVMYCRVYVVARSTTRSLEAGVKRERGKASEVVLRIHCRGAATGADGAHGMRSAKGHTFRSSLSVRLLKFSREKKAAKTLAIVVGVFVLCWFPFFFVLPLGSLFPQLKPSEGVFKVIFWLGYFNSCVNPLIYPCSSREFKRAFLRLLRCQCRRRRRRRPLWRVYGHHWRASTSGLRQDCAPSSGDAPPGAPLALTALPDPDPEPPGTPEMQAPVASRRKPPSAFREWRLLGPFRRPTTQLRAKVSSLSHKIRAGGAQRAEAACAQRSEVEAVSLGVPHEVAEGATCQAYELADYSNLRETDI
# Protocol: Compounds of invention were incubated with 0.6 nM [^3H]Prozosin for 60 min. at 25° C. Non-specific binding was estimated in the presence of 10 μM phentolamine. Receptor proteins were filtered and washed, the filters were then counted to determine [^3H]Prozosin specifically bound. Compounds were screened at 1 μM or lower, using 1% DMSO as vehicle. Biochemical assay results are presented as the percent inhibition of specific binding in Table 9.
# [2] = target: histamine receptor H1 (Homo sapiens, UniProt P35367); assay: Histamine H1 radioligand binding ([3H]Pyrilamine); details: for inhibition at 1 µM: read-out: Histamine Binding (1 μM) H1, percent inhibition of specific binding, 1 μM
# Outline: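 Values are percent inhibition of specific [3H]pyrilamine (1.2 nM) binding with compounds at ≤1 μM (1% DMSO vehicle); 180 min incubation at 25 °C, pH 7.4 Tris buffer, on CHO-expressed human H1 receptor; 1 μM pyrilamine defined nonspecific binding, bound ligand counted after filtration.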
# [3] = target: T2, human recombinant serotonin (5-Hydroxytryptamine) 5-HT2C receptor (Homo sapiens, UniProt P28335); assay: Serotonin 5-HT2C radioligand binding ([3H]Mesulergine)
# T2 construct: expressed in transfected cells; host or cells: Chinese hamster ovary (CHO-K1) cells
# T2 sequence (P28335 33-458): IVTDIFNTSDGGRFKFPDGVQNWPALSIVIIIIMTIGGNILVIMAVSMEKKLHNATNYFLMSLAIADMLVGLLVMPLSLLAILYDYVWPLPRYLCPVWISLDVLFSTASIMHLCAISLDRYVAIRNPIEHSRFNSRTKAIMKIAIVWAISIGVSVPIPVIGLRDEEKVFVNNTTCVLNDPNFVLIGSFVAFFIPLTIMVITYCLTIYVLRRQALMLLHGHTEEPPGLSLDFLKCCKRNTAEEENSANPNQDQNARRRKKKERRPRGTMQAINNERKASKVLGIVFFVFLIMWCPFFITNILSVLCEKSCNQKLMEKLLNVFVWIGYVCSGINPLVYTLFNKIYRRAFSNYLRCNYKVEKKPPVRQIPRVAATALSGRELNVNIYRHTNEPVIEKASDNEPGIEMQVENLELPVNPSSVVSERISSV
# Outline: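 Compounds tested at 1 μM or lower (1% DMSO vehicle) for displacement of 1 nM [3H]Mesulergine over 60 min at 25° C. Specific binding determined by filtration counting, with 1 μM Mianserin defining non-specific binding; values are percent inhibition.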
# [4] = target: T3, human recombinant histamine H2 receptor (Homo sapiens, UniProt P25021); assay: Histamine H2 radioligand binding ([125I]Aminopotentidine); details: read-out: Histamine Binding (1 μM) H2, percent inhibition of specific binding, 1 μM
# T3 construct: expressed in transfected cells; host or cells: Chinese hamster ovary (CHO) K1 cells
# Outline: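 Receptor source: human recombinant H2 in CHO-K1 cells, assayed in 50 mM phosphate pH 7.4. Competition against 0.1 nM [125I]aminopotentidine, 120 min, 25 °C; 3 μM tiotidine sets nonspecific binding, filter-bound counts give specific binding.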
# [5] = compound at 1 μM, read-out: Inhibition of ligand binding, Serotonin 5-HT2C (percent inhibition of specific binding)
# Chain of histamine receptor H1 (P35367 whole entry): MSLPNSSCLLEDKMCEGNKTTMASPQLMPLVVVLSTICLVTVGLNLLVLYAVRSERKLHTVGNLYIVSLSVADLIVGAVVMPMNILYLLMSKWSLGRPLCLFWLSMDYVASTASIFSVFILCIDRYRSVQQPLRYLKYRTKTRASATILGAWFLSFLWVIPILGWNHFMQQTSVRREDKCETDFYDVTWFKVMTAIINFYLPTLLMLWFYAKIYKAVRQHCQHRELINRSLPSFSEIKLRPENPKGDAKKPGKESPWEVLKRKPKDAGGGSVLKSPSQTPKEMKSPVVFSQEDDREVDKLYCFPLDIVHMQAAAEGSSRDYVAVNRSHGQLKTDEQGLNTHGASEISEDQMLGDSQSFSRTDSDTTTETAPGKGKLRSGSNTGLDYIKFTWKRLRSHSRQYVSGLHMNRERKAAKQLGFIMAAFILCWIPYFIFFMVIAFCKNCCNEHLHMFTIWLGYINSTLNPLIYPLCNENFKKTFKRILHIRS
# T3 sequence (P25021 whole entry): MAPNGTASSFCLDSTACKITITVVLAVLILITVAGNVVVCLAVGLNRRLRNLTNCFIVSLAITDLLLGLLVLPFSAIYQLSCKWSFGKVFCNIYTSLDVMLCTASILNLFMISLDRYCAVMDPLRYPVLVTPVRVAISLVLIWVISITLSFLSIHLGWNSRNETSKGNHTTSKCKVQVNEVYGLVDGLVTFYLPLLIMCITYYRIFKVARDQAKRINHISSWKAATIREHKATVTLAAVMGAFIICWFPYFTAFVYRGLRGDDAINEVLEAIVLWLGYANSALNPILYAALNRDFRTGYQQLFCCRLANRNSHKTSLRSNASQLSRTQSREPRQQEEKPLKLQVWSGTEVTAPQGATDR
Compound,inhibition at 1 µM [1],"Histamine Binding (1 μM) H1, percent inhibition of specific binding [2]",inhibition at 1 µM [2],"inhibition at 0.1 µM ([3]; compound at 0.1 μM, read-out: Inhibition of ligand binding, Serotonin 5-HT2C (percent inhibition of specific binding))","inhibition at 1 µM [3, 5]",inhibition at 1 µM [4],"Inhibition of ligand binding, Serotonin 5-HT2C (percent inhibition of specific binding) ([3]; compound at 1 μM, 1 µM)","Inhibition of ligand binding, Serotonin 5-HT2C (percent inhibition of specific binding) ([3]; compound at 0.1 μM, 0.1 µM)"
"C/C(=C\n1c2c(c3cc(C)ccc31)CN(C)CC2)c1ccc(F)cc1 [Compound 87, (E)-5-(2-(4-fluorophenyl)prop-1-enyl)-2,3,4,5-tetrahydro-2,8-dimethyl-1H-pyrido[4,3-b]indole]",99%,81%,65%,101%,100%,100%,,
"CN1CCc2c(c3cc(Cl)ccc3n2C/C(=C/CCO)c2ccc(F)cc2)C1 [Compound No. 349, (E)-5-(8-chloro-2-methyl-3,4-dihydro-1H-pyrido[4,3-b]indol-5(2H)-yl)-4-(4-fluorophenyl)pent-3-en-1-ol]",60%,65%,53%,,96%,84%,98%,
"CCCC/C(=C\n1c2c(c3cc(Cl)ccc31)CN(C)CC2)c1ccc(F)cc1 [Compound 208, (E)-8-chloro-5-(2-(4-fluorophenyl)hex-1-enyl)-2-methyl-2,3,4,5-tetrahydro-1H-pyrido[4,3-b]indole]",89%,,64%,,102%,102%,,
"CN1CCc2c(c3cc(Cl)ccc3n2CC(O)(c2ccc(F)cc2)C2CCC2)C1 (stereo not drawn) [Compound 177, 2-(8-chloro-2-methyl-3,4-dihydro-1H-pyrido[4,3-b]indol-5(2H)-yl)-1-cyclobutyl-1-(4-fluorophenyl)ethanol]",70%,,83%,,95%,101%,,
"COc1ccc(/C(C)=C/n2c3c(c4cc(Cl)ccc42)CN(C)CC3)cc1F [Compound 93, (E)-8-chloro-5-(2-(3-fluoro-4-methoxyphenyl)prop-1-enyl)-2,3,4,5-tetrahydro-2-methyl-1H-pyrido[4,3-b]indole]",96%,,39%,,99%,100%,,
"COc1ccc(C(C)(O)Cn2c3c(c4cc(Cl)ccc42)CN(C)CC3)cc1 (stereo not drawn) [Compound 57, 1-(8-chloro-1,2,3,4-tetrahydro-2-methylpyrido[4,3-b]indol-5-yl)-2-(4-methoxyphenyl)propan-2-ol]",84%,,41%,,86%,82%,,
"CCCCC(O)(Cn1c2c(c3cc(Cl)ccc31)CN(C)CC2)c1ccc(F)cc1 (stereo not drawn) [Compound 178, 1-(8-chloro-2-methyl-3,4-dihydro-1H-pyrido[4,3-b]indol-5(2H)-yl)-2-(4-fluorophenyl)hexan-2-ol]",46%,,30%,,95%,89%,,
"Cc1ccc2c(c1)c1c(n2/C=C/c2ccc(C)nc2)CCN(C)C1 [compound 95, 2,3,4,5-tetrahydro-2,8-dimethyl-5-((E)-2-(6-methylpyridin-3-yl)vinyl)-1H-pyrido[4,3-b]indole]",89%,,85%,,91%,41%,,
"COc1ccc(C(C)(O)Cn2c3c(c4cc(Cl)ccc42)CN(C)CC3)cc1F (stereo not drawn) [Compound 59, 1-(8-chloro-1,2,3,4-tetrahydro-2-methylpyrido[4,3-b]indol-5-yl)-2-(3-fluoro-4-methoxyphenyl)propan-2-ol]",81%,,63%,,99%,58%,,
"C/C(=C\n1c2c(c3cc(C)ccc31)CN(C)CC2)c1ccncc1 [Compound 88, (E)-2,3,4,5-tetrahydro-2,8-dimethyl-5-(2-(pyridin-4-yl)prop-1-enyl)-1H-pyrido[4,3-b]indole]",78%,,,,99%,30%,100%,74% and 96%
